Here are results for 22 compounds from patent US20260271927A1, “PESTICIDALLY ACTIVE BICYCLIC COMPOUNDS” (SYNGENTA CROP PROTECTION AG, priority 2023, published 2026).

Assay type in all cases: in vivo
For experiment [1], the system named is Spodoptera littoralis (Egyptian Cotton Leaf Worm). Kind of experiment: Spodoptera littoralis (Egyptian cotton leaf worm), cotton leaf discs, L1 larvae. Conditions: foliar, 72 h, application rate of 200 ppm, 3 days after infestation, read-out: control in at least one of the three categories (mortality, anti-feedant effect, or growth inhibition). Here is the method:
Cotton leaf discs were placed onto agar in 24-well microtiter plates and sprayed with aqueous test solutions prepared from 10′000 ppm DMSO stock solutions. After drying the leaf discs were infested with five L1 larvae. The samples were assessed for mortality, anti-feeding effect, and growth inhibition in comparison to untreated samples 3 days after infestation. Control of Spodoptera littoralis by a test sample is given when at least one of the categories mortality, anti-feedant effect, and growth inhibition is higher than the untreated sample.

The test system of experiment [2] is Myzus persicae (Green Peach Aphid). Kind of experiment: Myzus persicae intrinsic activity, sucrose solution under Parafilm. Conditions: 120 h, application rate of 12.5 ppm, 5 days after infestation, read-out: control (assessed for mortality). The procedure: Test compounds prepared from 10′000 ppm DMSO stock solutions were applied by pipette into 24-well microtiter plates and mixed with sucrose solution. The plates were closed with a stretched Parafilm. A plastic stencil with 24 holes was placed onto the plate and infested pea seedlings were placed directly on the Parafilm. The infested plate was closed with a gel blotting paper and another plastic stencil and then turned upside down. The samples were assessed for mortality 5 days after infestation.

The test system is the same in experiment [3]. Put plainly: Myzus persicae systemic activity, roots of pea seedlings in test solution. Conditions: 144 h, test rate of 24 ppm, 6 days after placing seedlings into test solutions. The procedure:
Roots of pea seedlings infested with an aphid population of mixed ages were placed directly into aqueous test solutions prepared from 10′000 DMSO stock solutions. The samples were assessed for mortality 6 days after placing seedlings into test solutions.

Experiment [4] deals with Chilo suppressalis (Striped Rice Stemborer). Put plainly: Chilo suppressalis (striped rice stemborer), artificial diet in 24-well plates, L2 larvae. Conditions: 144 h, application rate of 200 ppm, 6 days after infestation, read-out: control in at least one of the three categories (mortality, anti-feedant effect, or growth inhibition). The procedure: 24-well microtiter plates with artificial diet were treated with aqueous test solutions prepared from 10′000 ppm DMSO stock solutions by pipetting. After drying, the plates were infested with L2 larvae (6-8 per well). The samples were assessed for mortality, anti-feeding effect, and growth inhibition in comparison to untreated samples 6 days after infestation. Control of Chilo suppressalis by a test sample is given when at least one of the categories mortality, anti-feedant effect, and growth inhibition is higher than the untreated sample.

Experiment [5] has as its system Myzus persicae (Green Peach Aphid). Put plainly: Myzus persicae feeding/contact activity, eggplant leaf discs. The settings on record: foliar, 144 h, application rate of 200 ppm, 6 days after infestation, read-out: growth inhibition. Here is the method: Eggplant leaf discs were placed onto agar in a 24-well microtiter plate and sprayed with aqueous test solutions prepared from 10′000 ppm DMSO stock solutions. After drying, the leaf discs were infested with an aphid population of mixed ages. The samples were assessed for mortality 6 days after infestation.

Experiment [6] concerns Bemisia tabaci (Cotton White Fly). Kind of experiment: Bemisia tabaci feeding/contact activity, cotton leaf discs, adult white flies. The settings on record: foliar, 144 h, application rate of 200 ppm, 6 days after incubation. The procedure:
Cotton leaf discs were placed on agar in 24-well microtiter plates and sprayed with aqueous test solutions prepared from 10′000 ppm DMSO stock solutions. After drying the leaf discs were infested with adult white flies. The samples were checked for mortality 6 days after incubation.

Experiment [7] deals with Diabrotica balteata (Corn Root Worm). Kind of experiment: Diabrotica balteata (corn root worm), sprayed maize sprouts, L2 larvae. The settings on record: 96 h, application rate of 200 ppm, 4 days after infestation, read-out: control in at least one of the two categories (mortality or growth inhibition). Here is the method: Maize sprouts placed onto an agar layer in 24-well microtiter plates were treated with aqueous test solutions prepared from 10′000 ppm DMSO stock solutions by spraying. After drying, the plates were infested with L2 larvae (6 to 10 per well). The samples were assessed for mortality and growth inhibition in comparison to untreated samples 4 days after infestation.

Experiment [8] concerns Plutella xylostella (Diamond Back Moth). Put plainly: Plutella xylostella (diamond back moth), artificial diet, eggs. The settings on record: 192 h, application rate of 200 ppm, 8 days after infestation, read-out: effect in at least one of the two categories (mortality or growth inhibition). Here is the method:
24-well microtiter plates with artificial diet were treated with aqueous test solutions prepared from 10′000 ppm DMSO stock solutions by pipetting. After drying, Plutella eggs were pipetted through a plastic stencil onto a gel blotting paper and the plate was closed with it. The samples were assessed for mortality and growth inhibition in comparison to untreated samples 8 days after infestation.

For `O=C(Nc1cccn(-c2ccccc2)c1=O)[C@H]1[C@@H]2CCCO[C@@H]21` (relative stereo) [Compound P4, rel-(1S,6S,7S)-N-(2-oxo-1-phenyl-3-pyridyl)-2-oxabicyclo[4.1.0]heptane-7-carboxamide], in experiment [1], the percent control (mortality, anti-feedant effect or growth inhibition) at 200 ppm is no less than 80%.

In the case of `CNC(=O)c1ccccc1NC(=O)[C@H]1[C@@H]2OCCO[C@@H]21` [Compound P6], the mortality at 12.5 ppm in experiment [2] is no less than 80%. In experiment [3], this compound came in with a mortality at 24 ppm of no less than 80%.

With `O=C(O)[C@H]1[C@@H]2OCCO[C@@H]21` [Compound P7, (1α,6α,7α)-2,5-dioxabicyclo[4.1.0]heptane-7-carboxylic acid], in experiment [4], the percent control (mortality, anti-feedant effect or growth inhibition) at 200 ppm was no less than 80%. In experiment [2], the mortality at 12.5 ppm is no less than 80%. The mortality at 24 ppm in experiment [3] was no less than 80%. In addition, the mortality at 200 ppm in experiment [5] and in experiment [6] was no less than 80% throughout.

As to `CCOC(=O)[C@H]1[C@@H]2OCCO[C@@H]21` [Compound P8, Ethyl(1α,6α,7α)-2,5-dioxabicyclo[4.1.0]heptane-7-carboxylate], the percent control (mortality, anti-feedant effect or growth inhibition) at 200 ppm in experiment [4] was no less than 80%. Besides, the percent control (mortality or growth inhibition) at 200 ppm in experiment [7] is no less than 80%. Besides, the mortality at 12.5 ppm in experiment [2] was no less than 80%. Besides, the mortality at 24 ppm in experiment [3] was no less than 80%. The mortality at 200 ppm in experiment [5] and in experiment [6] was no less than 80% in each case. Besides, the percent effect (mortality or growth inhibition) at 200 ppm in experiment [8] was no less than 80%.

With `CN(C)C(=O)[C@H]1[C@@H]2OCCO[C@@H]21` [Compound P10, (1α,6α,7α)-N,N-dimethyl-2,5-dioxabicyclo[4.1.0]heptane-7-carboxamide], the percent control (mortality, anti-feedant effect or growth inhibition) at 200 ppm in experiment [4] was no less than 80%.

As to `O=C(NOCc1ccccc1)[C@H]1[C@@H]2OCCO[C@@H]21` [Compound P13, (1α,6α,7α)-N-benzyloxy-2,5-dioxabicyclo[4.1.0]heptane-7-carboxamide], the mortality at 24 ppm in experiment [3] was no less than 80%. The mortality at 200 ppm in experiment [5] and in experiment [6] was no less than 80% in each case.

`O=C(NOCc1c(F)cccc1F)[C@H]1[C@@H]2OCCO[C@@H]21` [Compound P14, (1α,6α,7α)-N-[(2,6-difluorophenyl)methoxy]-2,5-dioxabicyclo[4.1.0]heptane-7-carboxamide]: the percent control (mortality, anti-feedant effect or growth inhibition) at 200 ppm in experiment [4] is no less than 80%. The mortality at 24 ppm in experiment [3] is no less than 80%. The mortality at 200 ppm in experiment [5] was no less than 80%.

Take `CCONC(=O)[C@H]1[C@@H]2OCCO[C@@H]21` [Compound P15, (1α,6α,7α)-N-ethoxy-2,5-dioxabicyclo[4.1.0]heptane-7-carboxamide]: the percent control (mortality, anti-feedant effect or growth inhibition) at 200 ppm in experiment [4] was no less than 80%. In addition, the mortality at 12.5 ppm in experiment [2] is no less than 80%. In addition, in experiment [3], the mortality at 24 ppm was no less than 80%. For the same compound, the mortality at 200 ppm in experiment [5] was no less than 80%. Also, the percent effect (mortality or growth inhibition) at 200 ppm in experiment [8] is no less than 80%.

For the compound `Cc1cccc(NC(=O)[C@H]2[C@@H]3OCCO[C@@H]32)c1` [Compound P16, (1α,6α,7α)-N-(m-tolyl)-2,5-dioxabicyclo[4.1.0]heptane-7-carboxamide], the mortality at 200 ppm in experiment [5] was no less than 80%.

For the compound `Cc1ccc(NC(=O)[C@H]2[C@@H]3OCCO[C@@H]32)c(F)c1` [Compound P17, (1α,6α,7α)-N-(2-fluoro-4-methyl-phenyl)-2,5-dioxabicyclo[4.1.0]heptane-7-carboxamide], in experiment [7], the percent control (mortality or growth inhibition) at 200 ppm was no less than 80%.

On to `Cc1ccc(NC(=O)[C@H]2[C@@H]3OCCO[C@@H]32)cc1` [Compound P18, (1α,6α,7α)-N-(p-tolyl)-2,5-dioxabicyclo[4.1.0]heptane-7-carboxamide], for which, in experiment [7], the percent control (mortality or growth inhibition) at 200 ppm was no less than 80%. The compound further showed a mortality at 24 ppm in experiment [3] of no less than 80%.

For the compound `O=C(NCc1cc(Cl)ccc1Cl)[C@H]1[C@@H]2OCCO[C@@H]21` [Compound P19, (1α,6α,7α)-N-[(2,5-dichlorophenyl)methyl]-2,5-dioxabicyclo[4.1.0]heptane-7-carboxamide], the percent control (mortality or growth inhibition) at 200 ppm in experiment [7] was no less than 80%.

For `O=C(NCC1CC1)[C@H]1[C@@H]2OCCO[C@@H]21` [Compound P28, (1α,6α,7α)-N-(cyclopropylmethyl)-2,5-dioxabicyclo[4.1.0]heptane-7-carboxamide], the percent control (mortality, anti-feedant effect or growth inhibition) at 200 ppm in experiment [1] is no less than 80%.

As to `Cc1ccccc1NC(=O)[C@H]1[C@@H]2OCCO[C@@H]21` [Compound P29, (1α,6α,7α)-N-(o-tolyl)-2,5-dioxabicyclo[4.1.0]heptane-7-carboxamide], in experiment [7], the percent control (mortality or growth inhibition) at 200 ppm is no less than 80%. In experiment [3], this compound had a mortality at 24 ppm of no less than 80%.

In the case of `Cn1ccc(NC(=O)[C@H]2[C@@H]3OCCO[C@@H]32)n1` [Compound P30, (1α,6α,7α)-N-(1-methylpyrazol-3-yl)-2,5-dioxabicyclo[4.1.0]heptane-7-carboxamide], the percent control (mortality or growth inhibition) at 200 ppm in experiment [7] is no less than 80%. In experiment [3], this compound yielded a mortality at 24 ppm of no less than 80%.

On to `O=C(NOC1CCC1)[C@H]1[C@@H]2OCCO[C@@H]21` [Compound P31, (1α,6α,7α)-N-(cyclobutoxy)-2,5-dioxabicyclo[4.1.0]heptane-7-carboxamide], for which the percent control (mortality, anti-feedant effect or growth inhibition) at 200 ppm in experiment [4] is no less than 80%. Besides, the percent control (mortality or growth inhibition) at 200 ppm in experiment [7] was no less than 80%. The mortality at 24 ppm in experiment [3] is no less than 80%. In addition, in experiment [5], the mortality at 200 ppm is no less than 80%.

For the compound `O=C(Nc1cc2ccccn2n1)[C@H]1[C@@H]2OCCO[C@@H]21` [Compound P33], the percent control (mortality or growth inhibition) at 200 ppm in experiment [7] was no less than 80%.

Regarding `Cn1cc(NC(=O)[C@H]2[C@@H]3OCCO[C@@H]32)cn1` [Compound P36, (1α,6α,7α)-N-(1-methylpyrazol-4-yl)-2,5-dioxabicyclo[4.1.0]heptane-7-carboxamide], the percent control (mortality or growth inhibition) at 200 ppm in experiment [7] is no less than 80%. This compound also registered a mortality at 24 ppm in experiment [3] of no less than 80%. The mortality at 200 ppm in experiment [5] was no less than 80%.

`O=C(NC1CCOCC1)[C@H]1[C@@H]2OCCO[C@@H]21` [Compound P37, (1α,6α,7α)-N-tetrahydropyran-4-yl-2,5-dioxabicyclo[4.1.0]heptane-7-carboxamide] came in with a mortality at 24 ppm in experiment [3] of no less than 80%.

As to `Cn1nccc1NC(=O)[C@H]1[C@@H]2OCCO[C@@H]21` [Compound P38, (1α,6α,7α)-N-(2-methylpyrazol-3-yl)-2,5-dioxabicyclo[4.1.0]heptane-7-carboxamide], in experiment [7], the percent control (mortality or growth inhibition) at 200 ppm was no less than 80%.

Take `CCC(NC(=O)[C@H]1[C@@H]2OCCO[C@@H]21)c1ccc(Cl)cc1` (stereo partly drawn) [Compound P40, (1α,6α,7α)-N-[1-(4-chlorophenyl)propyl]-2,5-dioxabicyclo[4.1.0]heptane-7-carboxamide]: the percent control (mortality or growth inhibition) at 200 ppm in experiment [7] is no less than 80%.

`O=C(NCc1ccccc1)[C@H]1[C@@H]2OCCO[C@@H]21` [Compound P41, (1α,6α,7α)-N-benzyl-2,5-dioxabicyclo[4.1.0]heptane-7-carboxamide]: the percent control (mortality, anti-feedant effect or growth inhibition) at 200 ppm in experiment [4] was no less than 80%.
